Molecular target: T1, C5AR1 (Homo sapiens, UniProt P21730)
T1 construct: host or cells: CHO-K1
T1 sequence (P21730 1-350): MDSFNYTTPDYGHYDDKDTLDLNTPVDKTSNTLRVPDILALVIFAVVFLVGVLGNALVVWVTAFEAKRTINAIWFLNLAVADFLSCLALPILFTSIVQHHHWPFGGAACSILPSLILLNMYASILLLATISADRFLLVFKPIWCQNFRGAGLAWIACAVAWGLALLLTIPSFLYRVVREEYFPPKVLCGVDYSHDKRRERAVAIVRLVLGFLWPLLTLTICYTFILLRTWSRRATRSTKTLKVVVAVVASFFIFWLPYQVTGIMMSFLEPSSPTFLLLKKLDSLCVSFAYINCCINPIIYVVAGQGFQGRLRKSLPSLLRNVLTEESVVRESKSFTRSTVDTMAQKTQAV
Experiment: In vitro assay: antagonism of C5a-induced beta-arrestin recruitment (PathHunter) in CHO-K1 C5AR1 beta-arrestin cell line
Format: cell-based
Details: antagonistic activity, 1-10 nM C5a agonist, geometric mean where several measurements, read-out: C5aR IC50
Experimental: 5 μl Antagonist at 6-fold end concentration or DMSO control is added to assay medium and subsequently 5 μl 1-10 nM C5a agonist at 6 fold end concentration. Cells are centrifuged for 1 min at 1000 rpm and incubated for 1.5 hour in at 37° C. Plates are equilibrated at room temperature for several minutes before adding 12 μl/well Detection Reagent (PathHunter Detection Kit, DiscoverX, Cat #93-0001). Plates are centrifuged for 1 min at 1000 rpm and incubated for 45 minutes at RT before being measured on a Fluostar Optima, BMG Labtech. IC50 values are calculated from a serial dilution range of antagonist using inhouse software and given in nmol/l.
The calculated IC50 values may fluctuate depending on the daily cellular assay performance. Fluctuations of this kind are known to those skilled in the art. Average IC50 values from several measurements are given as geometric mean values.

Compound | IC50
COc1nccc(C(F)F)c1N1CCC(N2C(=O)N(Cc3ccccc3C(F)(F)F)c3nn(C)cc3C2C)CC1 (single isomer, unassigned) [Example 347] | 201 nM
CCOC(=O)N1CC[C@H]1Cn1cc2c(n1)N(Cc1ccccc1C(F)(F)F)C(=O)N(C1CCN(c3c(C)cccc3F)CC1)C2 [Example 124] | 13 nM
Cc1cccc(F)c1N1CCC(N2C(=O)N(Cc3ccccc3C3CC3)c3nn(C)cc3C2C)CC1 (single isomer, unassigned) [Example 318] | 131 nM
COc1nccc(C)c1N1CCC(N2Cc3nn(C4CC4)cc3N(Cc3ccccc3C(F)(F)F)C2=O)CC1 [Example 223] | 32 nM
COc1nccc(C)c1N1CCC(N2Cc3c(cnn3COCC[Si](C)(C)C)N(Cc3ccccc3C(F)(F)F)C2=O)CC1 [Example 216] | 41 nM
Cc1cccc(F)c1N1CCC(N2C(=O)N(Cc3ccccc3C(F)(F)F)c3cnn(COCC[Si](C)(C)C)c3C2C)CC1 (centres unmarked) [Example 237] | 80 nM
Cc1cccc(F)c1N1CCC(N2Cc3cn(CCNC4CC4)nc3N(Cc3ccccc3C(F)(F)F)C2=O)CC1 [Example 71] | 24 nM
CC1c2cn(C3CC3)nc2N(Cc2ccccc2C2CC2)C(=O)N1C1CCN(c2c(F)cccc2Cl)CC1 (single isomer, unassigned) [Example 338] | 110 nM
COC(=O)N1CC[C@H]1Cn1cc2c(n1)N(Cc1ccccc1C(F)(F)F)C(=O)N(C1CCN(c3c(C)cccc3F)CC1)C2 [Example 123] | 19 nM
Cc1cccc(F)c1N1CCCC(N2Cc3cn(C)nc3N(Cc3ccccc3C(F)(F)F)C2=O)CC1 (single isomer, unassigned) [Example 226] | 24 nM
Cc1cccc(F)c1N1CCC(N2Cc3cn(C)nc3N(C(C)c3ccccc3C(F)(F)F)C2=O)CC1 (single isomer, unassigned) [Example 246] | 21 nM
Cn1cc2c(n1)CN(C1CCN(c3c(F)cccc3OC(F)(F)F)CC1)C(=O)N2Cc1ccccc1C(F)(F)F [Example 270] | 54 nM
COc1nccc(C)c1N1CCC(N2Cc3n[nH]cc3N(Cc3ccccc3C(F)(F)F)C2=O)CC1 [Example 218] | 12 nM
Cc1cccc(F)c1N1CCC(N2Cc3cn(C)nc3N(Cc3c(F)cccc3C(F)(F)F)C2=O)CC1 [Example 61] | 16 nM
Cc1cccc(F)c1N1CCC(N2Cc3cn(CC(O)CO)nc3N(Cc3ccccc3C(F)(F)F)C2=O)CC1 (centres unmarked) [Example 40] | 27 nM
Cc1cccc(F)c1N1CCC(N2Cc3cn(CC(CO)N(C)C)nc3N(Cc3ccccc3C(F)(F)F)C2=O)CC1 (centres unmarked) [Example 56] | 91 nM

More lines, in order of falling IC50, values ahead:

IC50 | Compound
12 nM | COc1ccc(C(F)(F)F)c(CN2C(=O)N(C3CCN(c4c(C)cccc4F)CC3)Cc3cn(C)nc32)n1 [Example 38]
12 nM | Cc1cccc(F)c1N1CCC(N2Cc3cn(CC(C)O)nc3N(Cc3ccccc3C(F)(F)F)C2=O)CC1 (centres unmarked) [Example 33]
12 nM | CC1c2cn(C3CC3)nc2N(Cc2ccccc2C(F)(F)F)C(=O)N1C1CCN(c2c(F)cccc2Cl)CC1 (single isomer, unassigned) [Example 335]
11 nM | Cc1cccc(F)c1N1CC[C@@H](N2Cc3cn(C)nc3N(Cc3ccccc3C(F)(F)F)C2=O)C1 [Example 55]
9 nM | CC(C)c1ccccc1N1CCC(N2Cc3cn(C)nc3N(Cc3ccccc3C(F)(F)F)C2=O)CC1 [Example 257]
9 nM | CCOc1ccccc1CN1C(=O)N(C2CCN(c3c(C)cccc3F)CC2)Cc2cn(C)nc21 [Example 252]
7 nM | Cc1cccc(F)c1N1CCC(N2Cc3cn(C4CC4)nc3N(Cc3ccccc3C(F)(F)F)C2=O)CC1 [Example 174]
7 nM | COc1nccc(C(F)F)c1N1CCC(N2C(=O)N(Cc3ccccc3C(F)(F)F)c3nn(C)cc3C2C)CC1 (single isomer, unassigned) [Example 346]
5 nM | COc1nccc(Cl)c1N1CCC(N2C(=O)N(Cc3ccccc3C(F)(F)F)c3nn(C)cc3C2C)CC1 (single isomer, unassigned) [Example 376]
2 nM | CC1c2cn(C)nc2N(Cc2ccccc2C(F)(F)F)C(=O)N1C1CCN(c2c(F)cccc2Cl)CC1 (single isomer, unassigned) [Example 319]

— patent publication US11608341B2, “Substituted tetrahydropyrazolo[3,4-d]pyrimidines and tetrahydropyrazolo[4,3-d]pyrimidines as C5A receptor modulators” (Idorsia Pharmaceuticals Ltd., priority 2018, dated 2023)
